Data published in patent US10226045B2, “Azoline compounds” (priority 2014, dated 2019).

Tests used:
Assay type in all cases: in vivo
[1] = tested on: Southern Armyworm (Spodoptera eridania); assay: Southern armyworm, sprayed lima bean plants; settings: 96 h, 1 ppm, larvae on sprayed lima bean plants, 4 days after treatment, in comparison with untreated controls, read-out: mortality
Experimental: B.10 Southern Armyworm (Spodoptera eridania)
The active compounds were formulated in cyclohexanone as a 10,000 ppm solution supplied in tubes. The tubes were inserted into an automated electrostatic sprayer equipped with an atomizing nozzle and they served as stock solutions for which lower dilutions were made in 50% acetone:50% water (v/v). A nonionic surfactant (Kinetic®) was included in the solution at a volume of 0.01% (v/v).
Lima bean plants (variety Sieva) were grown 2 plants to a pot and selected for treatment at the 1st true leaf stage. Test solutions were sprayed onto the foliage by an automated electrostatic plant sprayer equipped with an atomizing spray nozzle. The plants were dried in the sprayer fume hood and then removed from the sprayer. Each pot was placed into perforated plastic bags with a zip closure. About 10 to 11 armyworm larvae were placed into the bag and the bags zipped closed. Test plants were maintained in a growth room at about 25° C. and about 20-40% relative humidity for 4 days, avoiding direct exposure to fluorescent light (24 hour photoperiod) to prevent trapping of heat inside the bags. Mortality and reduced feeding were assessed 4 days after treatment, compared to untreated control plants.

[2] = tested on: Vetch Aphid (Megoura viciae); assay: Vetch aphid, broad bean leaf disk test; settings: foliar, 120 h, 2500 ppm, adult aphids on sprayed broad bean leaf disks, 5 days, in comparison with untreated controls, read-out: mortality
Experimental: B.3 Vetch Aphid (Megoura viciae)
For evaluating control of vetch aphid (Megoura viciae) through contact or systemic means the test unit consisted of 24-well-microtiter plates containing broad bean leaf disks.
The compounds were formulated using a solution containing 75% v/v water and 25% v/v DMSO. Different concentrations of formulated compounds were sprayed onto the leaf disks at 2.5 μl, using a custom built micro atomizer, at two replications.
After application, the leaf disks were air-dried and 5-8 adult aphids placed on the leaf disks inside the microtiter plate wells. The aphids were then allowed to suck on the treated leaf disks and incubated at about 23±1° C. and about 50±5% relative humidity for 5 days. Aphid mortality and fecundity was then visually assessed.

[3] = tested on: Red Spider Mite (Tetranychus kanzawai); assay: Red spider mite, sprayed cowpea beans; settings: 300 ppm, mites on sprayed cowpea beans, 72 hours after treatment, in comparison with untreated controls, read-out: mortality
Experimental: B.9 Red Spider Mite (Tetranychus kanzawai)
The active compound was dissolved at the desired concentration in a mixture of 1:1 (vol:vol) distilled water:acetone. Add surfactant (Kinetic HV) was added at a rate of 0.01% (vol/vol). The test solution was prepared at the day of use.
Potted cowpea beans of 4-5 days of age were cleaned with tap water and sprayed with 1-2 ml of the test solution using air driven hand atomizer. The treated plants were allowed to air dry and afterwards inoculated with 30 or more mites by clipping a cassava leaf section from rearing population. Treated plants were placed inside a holding room at about 25-27° C. and about 50-60% relative humidity. Percent mortality was assessed 72 hours after treatment.

[4] = tested on: Orchid Thrips (dichromothrips corbetti); assay: Orchid thrips, floral-immersion technique; settings: 300 ppm; adult thrips on dipped orchid petals; 72 hours after treatment; in comparison with untreated controls; read-out: mortality
Experimental: B.7 Orchid Thrips (dichromothrips corbetti)
Dichromothrips corbetti adults used for bioassay were obtained from a colony maintained continuously under laboratory conditions. For testing purposes, the test compound is diluted in a 1:1 mixture of acetone:water (vol:vol), plus Kinetic HV at a rate of 0.01% v/v.
Thrips potency of each compound was evaluated by using a floral-immersion technique. All petals of individual, intact orchid flowers were dipped into treatment solution and allowed to dry in Petri dishes. Treated petals were placed into individual re-sealable plastic along with about 20 adult thrips. All test arenas were held under continuous light and a temperature of about 28° C. for duration of the assay. After 3 days, the numbers of live thrips were counted on each petal. The percent mortality was recorded 72 hours after treatment.

[5] = tested on: Neotropical Brown Stink Bug (Euschistus heros); assay: Neotropical brown stink bug, sprayed soybean pods in cups; settings: 120 h, 100 ppm, adults on soybean pods, after 5 days, in comparison with untreated controls, read-out: mortality
Experimental: B.12 Neotropical Brown Stink Bug (Euschistus heros)
The active compound was dissolved at the desired concentration in a mixture of 1:1 (vol:vol) distilled water: acetone. Surfactant (Kinetic HV) was added at a rate of 0.01% (vol/vol). The test solution was prepared at the day of use.
Soybean pods were placed in microwavable plastic cups and inoculated with ten adult stage E. heros. Using a hand atomizer, approximately 1 ml solution is sprayed into each cup, insects and food present. A water source was provided (cotton wick with water). Each treatment was replicated 2-fold. Assay arenas were kept at about 25° C. Percent mortality was recorded after 5 days.

[6] = tested on: Mediterranean Fruitfly (Ceratitis capitata); assay: Mediterranean fruitfly, insect diet microtiter plate test; settings: 120 h, 2500 ppm, eggs on sprayed insect diet, egg and larval mortality after 5 days, in comparison with untreated controls, read-out: mortality
Experimental: B.6 Mediterranean Fruitfly (Ceratitis capitata)
For evaluating control of Mediterranean fruitfly (CeratitiS capitata) the test unit consisted of microtiter plates containing an insect diet and 50-80 C. capitata eggs. The compounds were formulated using a solution containing 75% v/v water and 25% v/v DMSO. Different concentrations of formulated compounds were sprayed onto the insect diet at 5 μl, using a custom built micro atomizer, at two replications.
(§1) After application, microtiter plates were incubated at about 28±1° C. and about 80±5% relative humidity for 5 days. Egg and larval mortality was then visually assessed.

[7] = tested on: Green Peach Aphid (Myzus persicae); assay: Green peach aphid, systemic test on artificial diet in microtiter plates; settings: 72 h, 2500 ppm, adult aphids on treated artificial diet, 3 days, in comparison with untreated controls, read-out: mortality
Source text: B.2 Green Peach Aphid (Myzus persicae)
For evaluating control of green peach aphid (Myzus persicae) through systemic means the test unit consisted of 96-well-microtiter plates containing liquid artificial diet under an artificial mem brane.
The compounds were formulated using a solution containing 75% v/v water and 25% v/v DMSO. Different concentrations of formulated compounds were pipetted into the aphid diet, using a custom built pipetter, at two replications.
After application, 5-8 adult aphids were placed on the artificial membrane inside the microtiter plate wells. The aphids were then allowed to suck on the treated aphid diet and incubated at about 23±1° C. and about 50±5% relative humidity for 3 days. Aphid mortality and fecundity was then visually assessed.

[8] = tested on: Tobacco Budworm (Heliothis virescens); assay: Tobacco budworm, insect diet microtiter plate test; settings: 120 h, 2500 ppm, eggs on sprayed insect diet, egg and larval mortality after 5 days, in comparison with untreated controls, read-out: mortality
Experimental: B.4 Tobacco Budworm (Heliothis virescens)
For evaluating control of tobacco budworm (HeliothiS virescens) the test unit consisted of 96-well-microtiter plates containing an insect diet and 15-25 H. virescens eggs.
The compounds were formulated using a solution containing 75% v/v water and 25% v/v DMSO. Different concentrations of formulated compounds were sprayed onto the insect diet at 10 μl, using a custom built micro atomizer, at two replications.
as §1

O=C(NC1CS(=O)(=O)C1)c1ccc(C2=NCC(c3cc(Cl)c(F)c(Cl)c3)(C(F)(F)F)C2)c2c1CCC2 (centres unmarked) [Compound 2-3, 7-[3-(3,5-Dichloro-4-fluoro-phenyl)-3-(trifluoromethyl)-2,4-dihydropyrrol-5-yl]-N-(1,1-dioxothietan-3-yl)indane-4-carboxamide]
≥ 75%: mortality at 1 ppm [1] | mortality at 2500 ppm [2] | mortality at 300 ppm [3] | mortality at 300 ppm [4] | mortality at 100 ppm [5] | mortality at 2500 ppm [6] | mortality at 2500 ppm [7] | mortality at 2500 ppm [8]
